Test results: patent US20110104159A1, “COMPOSITIONS AND METHODS FOR TREATING, CONTROLLING, REDUCING, AMELIORATING, OR PREVENTING ALLERGY” (priority 2006, published 2011)
Where “and” joins values, the source holds several entries; their conditions need not be identical. Identical values can stand only once.

How the values were obtained:
[1] = test system: protein concentration in the aqueous humor; assay: Protein measurement in aqueous humor; format: in vivo, Rabbit; settings: for Protein in aqueous humor at the second paracentesis, Mean: group mean; for Protein in aqueous humor at the second paracentesis: individual eye sample, listed as BOL
Experimental: (§1) Each rabbit was placed in a restraint device and tagged with the alphanumeric code. The formulations were instilled (50 μl) into the conjunctival sac of both eyes 180, 120, 90 and 30 min before the first paracentesis; then 15, 30, 90 min after the first paracentesis. To perform the first paracentesis the animals were anaesthetized by intravenous injection of 5 mg/kg Zoletil® (Virbac; 2.5 mg/kg tiletamine HCl and 2.5 mg/kg zolazepam HCl) and one drop of local anesthetic (Novesina®, Novartis) was administered to the eye. Anterior chamber paracentesis was performed with a 26 G needle attached to a tuberculin syringe; the needle was introduced into the anterior chamber through the cornea, taking care not to damage the tissues. Two hours after the first paracentesis, the animals were sacrificed with 0.4 ml Tanax® (Intervet International B.V.) and the second paracentesis was performed. About 100 μl of aqueous humor were removed at the second paracentesis. Aqueous humor was immediately split in four aliquots and stored at −80° C. until analysis. Then both eyes were enucleated and the iris-ciliary body was carefully excised, placed in polypropylene tubes, and stored at −80° C. until analysis.
For protein concentration determination in the aqueous humor we used the Protein Quantification Kit (Fluka; Cat. No. 77371; Lot. No. 1303129). Five microliters of aqueous humor were diluted to 100 μl with water. Twenty microliters of samples and of standards were load into a 96-well plate and recorded in a plate layout. Samples were treated following the assay procedure described in the kit. A microplate reader (GDV, Italy; model DV 990 B/V6) set at 670 nm was used for making the calibration and analyzing the samples.

[2] = test system: murine thymocyte line S49; settings: murine thymocyte line S49 [26]; cited from earlier work
[3] = test system: rabbit paracentesis model; assay: Pupillary diameter measurement, rabbit paracentesis model; format: in vivo; settings: for Pupillary diameter T2: −5 min: 5 min before first paracentesis; for Pupillary diameter T2: −5 min / Pupillary diameter T3: +115 min / Pupillary diameter Δ(T3 − T1) / Pupillary diameter T1: −180 min: individual eye, listed as BOL; for Pupillary diameter T3: +115 min: 5 min before second paracentesis; for Pupillary diameter Δ(T3 − T1): +115 min minus −180 min; for Pupillary diameter T1: −180 min: basal; for Mean (mm) Δ(T3 − T1) of pupillary diameter: group mean, n=8 eyes
Experimental: as §1
The pupillary diameter of both eyes was measured with a Castroviejo caliper 180 min and 5 min before the first paracentesis and 5 min before the second paracentesis.

[4] = test system: ovalbumin-sensitized guinea pigs; assay: Active anaphylaxis in the guinea pig: conjunctival symptoms after OVA challenge; format: in vivo; settings: 0.4% eye drops, 30 μl/eye 45 min before OVA
Experimental: Male Dunkin-Hartley guinea pigs (250-300 g) were purchased from Charles River (Calco, Italy). Animal procedures followed the guidelines of the University of Bologna Animal Care and Use Committee and conformed to the Association for Research in Vision and Ophthalmology (ARVO) resolution on the use of animals in research.
Male Dunkin-Hartley guinea pigs were actively immunized by i.p. injection of 200 μg OVA in 2 ml saline with 40 mg aluminum hydroxide (positive control) or saline alone (negative control), as previously reported. […] Negative controls received saline alone.
Conjunctival clinical symptoms were rated blind on both eyes using the following scale: 0, no symptoms; 1, slight conjunctival redness with or without tears; 2, mild conjunctival redness with tears and mild chemosis; 3, mild conjunctival redness with tears and moderate chemosis; 4, severe conjunctival redness with tears and partial lid eversion; 5, severe conjunctival redness with tears and lids more than half closed. The animals were euthanized 24 h after OVA challenge by i.p. injection of Tanax® (3 ml/kg; Hoechst AG, Frankfurt-am-Main, Germany) and the conjunctivas were carefully excised and each was divided into two samples for subsequent investigations. […] The number of eosinophils in each field was counted under light microscopy (×500 magnification). In the other sample eosinophil peroxidase activity was measured.

[5] = test system: annexin I; assay: Annexin I surface expression in human eosinophils (FACS), transactivation marker; format: cell-based; settings: 10 000 nM
Experimental: FACS was performed to measure cell surface expression of annexin I and CXCR4 as indicators of glucocorticoid-mediated transactivation. Human eosinophils were double-stained with a red dye-conjugated secondary antibody to trace changes in the expression of CXCR4 or I, and a green dye-conjugated annexin V to exclude apoptotic cells from the analysis. The cells were counted and transferred to a 24-well plate (10^6 cells/well) and serum-starved (0.1% FBS) for 24 h.
At the end of the incubation, the cells were harvested and each sample was divided into two tubes to run parallel tests for annexin I and CXCR4 surface expression. After rinsing all samples with a HBSS solution containing 1% BSA, the cells were incubated for 45 min on a shaker with anti-annexin I or anti-CXCR4 antibodies (1:200) on ice; the negative control was incubated with an isotype-specific control antibody.
The cells were then washed twice with HBSS/BSA buffer before exposure to the Alexa Fluor® 568-conjugated secondary antibody. The excess of unbound antibody was washed away, and all samples were incubated for 15 min in the presence of annexin V-Fluos. […] Electronic gates were set on annexin V-negative cells and CXCR4 or annexin I-positive cells. Data from 10,000 cells/sample were analyzed using dedicated software (Becton, Dickinson and Company). The % of CXCR4 or annexin I positive cells was calculated.

[6] = molecular target: human glucocorticoid receptor (Homo sapiens, UniProt P04150); settings: Schacke et al. [26]; cited from earlier work
human glucocorticoid receptor, sequence (P04150 whole entry): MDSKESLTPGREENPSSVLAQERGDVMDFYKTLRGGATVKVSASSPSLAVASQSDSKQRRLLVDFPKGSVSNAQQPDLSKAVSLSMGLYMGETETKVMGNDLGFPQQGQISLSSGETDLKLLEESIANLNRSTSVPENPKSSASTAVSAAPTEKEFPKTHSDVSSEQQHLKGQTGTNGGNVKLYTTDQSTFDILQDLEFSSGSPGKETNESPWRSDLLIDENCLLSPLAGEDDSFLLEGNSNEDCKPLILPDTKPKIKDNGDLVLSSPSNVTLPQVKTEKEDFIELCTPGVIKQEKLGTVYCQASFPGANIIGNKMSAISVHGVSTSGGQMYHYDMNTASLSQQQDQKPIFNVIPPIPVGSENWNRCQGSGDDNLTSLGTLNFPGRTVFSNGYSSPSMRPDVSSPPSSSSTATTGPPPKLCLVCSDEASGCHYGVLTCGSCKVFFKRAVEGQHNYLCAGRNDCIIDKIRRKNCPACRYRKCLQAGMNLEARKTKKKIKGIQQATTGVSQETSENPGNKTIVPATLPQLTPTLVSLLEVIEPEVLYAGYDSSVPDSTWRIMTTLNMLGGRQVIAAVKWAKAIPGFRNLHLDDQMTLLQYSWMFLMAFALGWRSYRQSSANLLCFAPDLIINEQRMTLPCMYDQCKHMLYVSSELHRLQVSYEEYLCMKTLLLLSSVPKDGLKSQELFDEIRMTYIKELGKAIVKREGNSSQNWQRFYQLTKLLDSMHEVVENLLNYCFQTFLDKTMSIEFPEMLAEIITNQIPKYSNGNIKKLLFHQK

## Cc1ccc2c(NC[C@](O)(CC(C)(C)c3cc(F)cc4c3OCC4)C(F)(F)F)cccc2n1 [BOL-303242-X, (R)-1,1,1-Trifluoro-4-(5-fluoro-2,3-dihydrobenzofuran-7-yl)-4-methyl-2-{[(2-methyl-5-quinolyl)amino]methyl}pentan-2-ol]
[1]; 0.1% topical
  Protein in aqueous humor at the second paracentesis, Mean: 33.667 mg/mL
  Protein in aqueous humor at the second paracentesis: 34.87 mg/mL and 34.41 mg/mL and 31.14 mg/mL and 22.82 mg/mL and 29.46 mg/mL and 31.69 mg/mL and 35.70 mg/mL and 49.25 mg/mL
[1]; 0.5% topical
  Protein in aqueous humor at the second paracentesis, Mean: 28.844 mg/mL
  Protein in aqueous humor at the second paracentesis: 33.98 mg/mL and 33.65 mg/mL and 19.99 mg/mL and 27.11 mg/mL and 19.72 mg/mL and 36.35 mg/mL and 27.71 mg/mL and 32.24 mg/mL
[1]; 0.5% topical, p<0.05
  Protein in aqueous humor, statistical comparison with CTR: statistical significance
[1]; 1% topical
  Protein in aqueous humor at the second paracentesis, Mean: 21.435 mg/mL
  Protein in aqueous humor at the second paracentesis: 20.99 mg/mL and 21.48 mg/mL and 15.11 mg/mL and 20.28 mg/mL and 20.94 mg/mL and 21.89 mg/mL and 20.03 mg/mL and 30.76 mg/mL
[1]; 1% topical, p<0.001
  Protein in aqueous humor, statistical comparison with CTR: statistical significance
[2]
  Induction of apoptosis in thymocytes: does not induce apoptosis
[3]; 0.1% topical
  Pupillary diameter T2: −5 min: 6.5 mm (3×) and 7.0 mm (4×) and 7.5 mm
  Pupillary diameter T3: +115 min: 5.0 mm (2×) and 6.0 mm (3×) and 6.5 mm and 5.5 mm (2×)
  Pupillary diameter Δ(T3 − T1): −1.5 mm (4×) and −0.5 mm (2×) and −1.0 mm (2×)
  Pupillary diameter T1: −180 min: 6.5 mm (4×) and 7.0 mm (3×) and 7.5 mm
[3]; 0.5% topical
  Pupillary diameter T2: −5 min: 8.0 mm (3×) and 7.0 mm (4×) and 7.5 mm
  Pupillary diameter T3: +115 min: 6.5 mm (4×) and 6.0 mm (2×) and 7.0 mm (2×)
  Pupillary diameter Δ(T3 − T1): −1.5 mm (2×) and −0.5 mm (2×) and −1.0 mm (4×)
  Pupillary diameter T1: −180 min: 8.0 mm (3×) and 7.0 mm (3×) and 7.5 mm (2×)
  Mean (mm) Δ(T3 − T1) of pupillary diameter: −1.0 mm
[3]; 1% topical
  Pupillary diameter T2: −5 min: 6.0 mm (2×) and 6.5 mm (4×) and 7.0 mm (2×)
  Pupillary diameter T3: +115 min: 5.5 mm (2×) and 5.0 mm (4×) and 6.0 mm (2×)
  Pupillary diameter Δ(T3 − T1): −0.5 mm (3×) and −1.5 mm (2×) and −1.0 mm (3×)
  Pupillary diameter T1: −180 min: 6.0 mm (3×) and 6.5 mm (5×)
  Mean (mm) Δ(T3 − T1) of pupillary diameter: −0.9 mm
[4]; 1 h after challenge
  Conjunctival symptoms (swelling of the eyelids and chemosis), early phase: significantly reduced
[4]; 6 h after challenge
  Severity of conjunctival symptoms, late phase: significant reduction in the severity of conjunctival symptoms
[5]
  Induction of annexin I expression on the eosinophil cell surface: partially effective only at the highest concentration
[6]
  Binding to the human glucocorticoid receptor: high affinity and selectivity
